Experimental data: PubChem BioAssay AID1919008 (Molecular Pharmacology Branch, DTP, NCI, 2023)
Several values for one entry are separate records, joined by “and”; a condition that tells them apart may be missing. Equal values may be shown once.

Tested on: DMS-114 complex spheroids with HUVEC/MSC, growth % test/control
Assay: Anticancer human tumor DMS-114 cell line growth inhibition [AhR];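 note: spheroids exposed to agents for 7 days before readout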;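 for viability, T/C: 100% = DMSO vehicle control wells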
Settings: for viability, T/C: stronger effect = lower value
Method in brief: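 Agents were dosed in half-log steps down from roughly clinical Cmax, or from 10 microM where Cmax was unknown, alone and with AhR antagonists. Read-out: percent test/control growth of tumor spheroids containing HUVEC and MSC stromal cells.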

[1] = curve of first compound, second compound 0.1 µM
[2] = curve of first compound, second compound 0.316 µM
[3] = curve of first compound, second compound 1 µM
[4] = curve of first compound, second compound 3.16 µM
[5] = curve of first compound, second compound 10 µM
[6] = second compound 0.1 µM, first compound 0.0316 µM
[7] = second compound 0.1 µM, first compound 0.1 µM
[8] = second compound 0.1 µM, first compound 0.316 µM
[9] = second compound 0.1 µM, first compound 1 µM
[10] = second compound 0.316 µM, first compound 0.0316 µM
[11] = second compound 0.316 µM, first compound 0.1 µM
[12] = second compound 0.316 µM, first compound 0.316 µM
[13] = second compound 0.316 µM, first compound 1 µM
[14] = second compound 1 µM, first compound 0.0316 µM
[15] = second compound 1 µM, first compound 0.1 µM
[16] = second compound 1 µM, first compound 0.316 µM
[17] = second compound 1 µM, first compound 1 µM
[18] = second compound 3.16 µM, first compound 0.0316 µM
[19] = second compound 3.16 µM, first compound 0.1 µM
[20] = second compound 3.16 µM, first compound 0.316 µM
[21] = second compound 3.16 µM, first compound 1 µM
[22] = second compound 10 µM, first compound 0.0316 µM
[23] = second compound 10 µM, first compound 0.1 µM
[24] = second compound 10 µM, first compound 0.316 µM
[25] = second compound 10 µM, first compound 1 µM

Row | SMILES | IC50 [1] [µM] | IC50 [2] [µM] | IC50 [3] [µM] | IC50 [4] [µM] | IC50 [5] [µM] | viability, T/C [6] [%] | viability, T/C [7] [%] | viability, T/C [8] [%] | viability, T/C [9] [%] | viability, T/C [10] [%] | viability, T/C [11] [%] | viability, T/C [12] [%] | viability, T/C [13] [%] | viability, T/C [14] [%] | viability, T/C [15] [%] | viability, T/C [16] [%] | viability, T/C [17] [%] | viability, T/C [18] [%] | viability, T/C [19] [%] | viability, T/C [20] [%] | also measured
1 | O=C(C=Cc1cccc(S(=O)(=O)Nc2ccccc2)c1)NO | – | – | – | – | – | – | – | – | – | – | – | – | – | – | – | – | – | – | – | – | viability, T/C (compound 0.0316 µM): 88.4% and 108% and 83%; viability, T/C (compound 0.1 µM): 85.7% and 103% and 74.2%; viability, T/C (compound 0.316 µM): 54.9% and 91% and 60%; viability, T/C (compound 1 µM): 29.6% and 69.9% and 26.9%; viability, T/C (compound 3.16 µM): 13.4% and 26.4% and 15.6%; viability, T/C (compound 10 µM): 9.67% and 29.7% and 13.6%; IC50 (curve of compound): 0.424 µM and 1.73 µM and 0.436 µM
2 | COc1ccc([C@@H](O)c2cc(-c3ncnc4cc(N5CCOCC5)ccc34)c(F)cc2Cl)nn1 + CC(CO)NC(=O)c1cc(-c2ccc(Cl)cc2)nn(-c2cnn(C)c2)c1=O | > 10 | > 10 | > 10 | > 10 | > 10 | 98.8 | 100 | 100 | 105 | 98.5 | 96.2 | 90.4 | 94.9 | 92 | 95.5 | 96.7 | 107 | 108 | 99.8 | 91.9 | viability, T/C (second compound 0.1 µM, first compound 3.16 µM): 108%; viability, T/C (second compound 0.1 µM, first compound 10 µM): 61%; viability, T/C (second compound 0.316 µM, first compound 3.16 µM): 101%; viability, T/C (second compound 0.316 µM, first compound 10 µM): 63.3%; viability, T/C (second compound 1 µM, first compound 3.16 µM): 98.3%; viability, T/C (second compound 1 µM, first compound 10 µM): 63.8%; viability, T/C [21]: 103%; viability, T/C (second compound 3.16 µM, first compound 3.16 µM): 104%; viability, T/C (second compound 3.16 µM, first compound 10 µM): 64.2%; viability, T/C [22]: 104%; viability, T/C [23]: 97.5%; viability, T/C [24]: 95.1%; viability, T/C [25]: 87.5%; viability, T/C (second compound 10 µM, first compound 3.16 µM): 81.2%; viability, T/C (second compound 10 µM, first compound 10 µM): 55.2%
3 | Nc1ncn(C2CC(O)C(CO)O2)c(=O)n1 (configuration not stated) + Cc1cncc(-c2nc(NCCc3c[nH]c4ccccc34)c3ncn(C(C)C)c3n2)c1 | > 1 | > 1 | > 1 | > 1 | < 0.00316 | 99.5 | 101 | 77 | 54.8 | 90.6 | 88 | 74.3 | 52.3 | 81.5 | 94.3 | 86.4 | 62 | 86.5 | 81.7 | 85.2 | viability, T/C (second compound 0.1 µM, first compound 0.00316 µM): 111%; viability, T/C (second compound 0.1 µM, first compound 0.01 µM): 88.5%; viability, T/C (second compound 0.316 µM, first compound 0.00316 µM): 90.4%; viability, T/C (second compound 0.316 µM, first compound 0.01 µM): 93.1%; viability, T/C (second compound 1 µM, first compound 0.00316 µM): 97.8%; viability, T/C (second compound 1 µM, first compound 0.01 µM): 91.7%; viability, T/C (second compound 3.16 µM, first compound 0.00316 µM): 82.9%; viability, T/C (second compound 3.16 µM, first compound 0.01 µM): 86.5%; viability, T/C [21]: 68.8%; viability, T/C (second compound 10 µM, first compound 0.00316 µM): 31.6%; viability, T/C (second compound 10 µM, first compound 0.01 µM): 36.9%; viability, T/C [22]: 44.8%; viability, T/C [23]: 45.5%; viability, T/C [24]: 35.6%; viability, T/C [25]: 37.1%
